Data on three compounds can be found in publication PMC6005897, “Ligand-Induced Variations in Structural and Dynamical Properties Within an Enzyme Superfamily” (Frontiers in Molecular Biosciences, 2018).

Read-outs that look alike come from different tables or passages of the source.

Test [1] has as its target bovine RNase A (RNA_Bovine). On the set-up: method as in Gagné et al. ([2012]). To be noted: ref Gagné et al. ([2012]); cited from earlier work.
Test [2] deals with T1, human RNase 2 (RN2_Human) (Homo sapiens, UniProt P10153).
T1 construct: made in house; host or cells: Escherichia coli
As to the kind of experiment: NMR chemical shift titration, ligand binding to human RNase 2. An excerpt: (§1) The pH was carefully monitored throughout the experiments and readjusted with Tris-base or acetic acid if necessary. Ligands 3′-UMP (Chemical Impex Intl Inc., Wood Dale, IL, USA) and 5′-AMP (BioBasic Inc., Markham, ON Canada) were purchased commercially and dissolved in the same buffer as the protein. ^1H-^15N sensitivity-enhanced HSQC experiments were acquired at 800 MHz (18.8 T) using spectral widths (points) of 2025 (160) and 8000 Hz (1024) in the ω1 and ω2 dimensions, respectively. Titration experiments were performed for each ligand with enzyme:ligand molar ratios up to 1:12 (1:12), 1:18 (1:18), 1:24 (1:18), 1:30 (1:18) and 1:18 (1:30) for the 3′-UMP- (5′-AMP-) bound states of bovine RNase A and human RNases 2, 3, 4, and 5, respectively.
(§2) The equilibrium dissociation constant (Kd) was calculated by plotting weighted average chemical shift differences (Δδobs) as a function of ligand concentration and fitting the data using the following equation: […]
(§3) The Kd was estimated by simultaneously fitting the data of all residues affected by ligand binding (Williamson, [2013]). We note that Δδmax is a fitted parameter and not an experimentally measured one. […] Chemical shift perturbations (Δδobs) were calculated as the difference in the weighted average chemical shift of the ligand-bound (5′-AMP and 3′-UMP) and apo states, as shown below. […]

For test [3], the target named is T2, human RNase 4 (RN4_Human) (Homo sapiens, UniProt P34096).
T2 construct: made in house; host or cells: Escherichia coli
T2 sequence (P34096 29-147): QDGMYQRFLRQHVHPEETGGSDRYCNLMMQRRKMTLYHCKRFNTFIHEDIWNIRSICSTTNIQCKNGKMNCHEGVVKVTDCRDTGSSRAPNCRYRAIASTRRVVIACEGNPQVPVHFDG
As to the kind of experiment: NMR chemical shift titration, ligand binding to human RNase 4. To be noted: 298 K, 15 mM sodium acetate pH 5.0, ± standard deviation of the fit.
From the text: as §1, §2, §3

Test [4] has as its target T3, human RNase 3 (RN3_Human) (Homo sapiens, UniProt P12724).
T3 construct: made in house; host or cells: Escherichia coli
T3 sequence (P12724 28-160): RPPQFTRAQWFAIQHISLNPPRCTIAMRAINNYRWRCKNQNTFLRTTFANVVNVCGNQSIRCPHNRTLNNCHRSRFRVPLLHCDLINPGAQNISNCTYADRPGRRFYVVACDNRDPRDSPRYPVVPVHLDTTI
In words: NMR chemical shift titration, ligand binding to human RNase 3.
From the text: as §1
The equilibrium dissociation constant (Kd) was calculated by plotting weighted average chemical shift differences (Δδobs) as a function of ligand concentration and fitting the data using the following equation:
(1) Δδobs=Δδmax/2[P]t([P]t+[L]t/[P]t[P]t+Kd −([P]t+[L]t/[P]t[P]t+Kd)^2−4[L]t/[P]t[P]^2t)
The Kd was estimated by simultaneously fitting the data of all residues affected by ligand binding (Williamson, [2013]). We note that Δδmax is a fitted parameter and not an experimentally measured one. Uncertainties on these values are given by the standard deviations of the fits. Chemical shift perturbations (Δδobs) were calculated as the difference in the weighted average chemical shift of the ligand-bound (5′-AMP and 3′-UMP) and apo states, as shown below.
(2) Δδobs=(ΔδH)^2+(0.2ΔδN)^2/2

The target of test [5] is T4, human RNase 5 (RN5_Human) (Homo sapiens, UniProt P03950).
T4 construct: made in house; host or cells: Escherichia coli
As to the kind of experiment: NMR chemical shift titration, ligand binding to human RNase 5. To be noted: 298 K, 15 mM sodium acetate pH 5.0, ± standard deviation of the fit.
From the text: as §1, §2, §3

[6] abbreviates: RN3_Human, 298 K, 15 mM sodium acetate pH 5.0, ± standard deviation of the fit, read-out: Kd.

T1 sequence (P10153 28-161): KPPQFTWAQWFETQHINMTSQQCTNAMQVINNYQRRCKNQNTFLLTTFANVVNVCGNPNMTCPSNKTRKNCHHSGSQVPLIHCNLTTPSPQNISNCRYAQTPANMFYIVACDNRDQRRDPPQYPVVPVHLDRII
T4 sequence (P03950 25-147): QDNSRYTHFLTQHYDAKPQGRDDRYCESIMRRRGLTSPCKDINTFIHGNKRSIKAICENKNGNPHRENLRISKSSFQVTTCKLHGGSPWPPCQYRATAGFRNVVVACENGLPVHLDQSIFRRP

A word on the Kd: it is the equilibrium constant for the complex coming apart. For the compound `O=c1ccn([C@@H]2O[C@H](CO)[C@@H](OP(=O)(O)O)[C@H]2O)c(=O)[nH]1` [3′-UMP], the Kd is 9.7 ± 0.9 µM in test [1]; 456 ± 10.6 µM in test [2]; 10300 µM in test [3]; 460 ± 100 µM in test [4] (setting [6]); 1940 µM in test [5].

Turning to `Nc1ncnc2c1ncn2[C@@H]1O[C@H](COP(=O)(O)O)[C@@H](O)[C@H]1O` [5′-AMP], the dissociation constant Kd was 124 ± 1 µM in test [1]; 540 ± 31.4 µM in test [2] (RN2_Human, 298 K, 15 mM sodium acetate pH 5.0, ± standard deviation of the fit, read-out: Kd); 300 ± 45 µM in test [4].

As to dATATA, the Kd in test [3] was determined as 72.9 ± 9 µM; in test [4] (setting [6]) it was 302 ± 31 µM.
